The record followed here is patent US20040142821A1, “Pesticide composition comprising malononitrile compounds” (priority 2001, published 2004).

One assay has as its system Cullex pipiens pallens. In words: whole plant or invertebrate. Particulars: 24 h.
The subject of the next assay is Musca domestics. The experiment in a line: Pesticidal test against Musca domestics, treated filter paper with sucrose bait (Test Example 5). It counts as in vivo. The conditions noted are these: 500 ppm test liquid (Formulation Example 5), 0.7 ml on filter paper, ten female adults, after 24 hours. The method, then: Ten female adults of Musca domestics (house fly) were set free in the polyethylene cup, which was then kept covered. After 24 hours, their survival was examined to determine the mortality.

Description for Cullex pipiens pallens: In 100 ml of ion-exchanged water, the test liquid had been prepared as described above, was added dropwise in an amount of 0.7 ml (the concentration of active ingredient was 3.5 ppm). Twenty final-instar larvae of Cullex pipiens pallens (common mosquito) were set free in the solution. After 1 days, their survival was examined to determine the mortality.

The molecule `C=CCCC(C#N)(C#N)Cc1ccc(C#N)cc1` [Compound 6, 2-(3-butenyl)-2-(4-cyanobenzyl)malononitrile] returned a mortality at 3.5 µg/mL in the assay on Cullex pipiens pallens of 100%. The same measure, in the same setting: in the case of `C=CCCCC(C#N)(C#N)Cc1ccc(C#N)cc1` [Compound 7, 2-(4-cyanobenzyl)-2-(4-pentenyl)malononitrile] it was 100%; in that of `C=CCC(C#N)(C#N)Cc1ccc(Br)cc1` [Compound 13, 2-allyl-2-(4-bromobenzyl)malononitrile], 100%. Take `CC(C)=CCC(C#N)(C#N)Cc1ccc(Cl)cc1` [Compound 25, 2-(4-chlorobenzyl)-2-(3-methyl-2-butenyl)malononitrile]: the mortality at 3.5 µg/mL with Cullex pipiens pallens was 100%. `CC(C)=CCC(C#N)(C#N)Cc1ccc(OC(F)(F)F)cc1` [Compound 27, 2-(3-methyl-2-butenyl)-2-(4-(trifluoromethoxy)benzyl)malononitrile]: in the assay on Cullex pipiens pallens, the mortality at 3.5 µg/mL worked out at 100%. Still for that read-out and setting: in the case of `C=CCC(C#N)(C#N)Cc1cccc(OC)c1` [Compound 28, 2-allyl-2-(3-methoxybenzyl)malononitrile] it was 100%; in that of `C=CCC(C#N)(C#N)Cc1ccc(OC)cc1` [Compound 29, 2-allyl-2-(4-methoxybenzyl)malononitrile], 100%. For the molecule `C#CCC(C#N)(C#N)C(C=C)c1ccc(OC(F)(F)F)cc1` (stereo not drawn) [Compound 34, 2-(2-propynyl)-2-(1-(4-(trifluoromethoxy)phenyl)-2-propenyl)malononitrile], the mortality at 500 ppm in the assay on Musca domestics worked out at 100%. Moreover, the mortality at 3.5 µg/mL in the assay on Cullex pipiens pallens was found to be 100%. With `C=CCCC(C#N)(C#N)Cc1ccc(OC(F)(F)Br)cc1` [Compound 35, 2-(3-butenyl)-2-(4-(bromodifluoromethoxy)benzyl)malononitrile], the mortality at 500 ppm with Musca domestics was 100%. Moreover, in the assay with Cullex pipiens pallens, the mortality at 3.5 µg/mL was found to be 100%. As for `C=CCCC(C#N)(C#N)Cc1ccc(OCC=C)cc1` [Compound 38, 2-(3-butenyl)-2-(4-(2-propenyloxy)benzyl)malononitrile], the mortality at 3.5 µg/mL in the assay on Cullex pipiens pallens worked out at 100%. Regarding `C=CCC(C#N)(C#N)Cc1ccc(OCC)cc1` [Compound 44, 2-allyl-2-(4-ethoxybenzyl)malononitrile], the mortality at 3.5 µg/mL in the assay with Cullex pipiens pallens was found to be 100%. For `CC(C)CCC(C#N)(C#N)Cc1ccc(OC(F)(F)F)cc1` [Compound 45, 2-(3-methylbutyl)-2-(4-(trifluoromethoxy)benzyl)malononitrile], the mortality at 500 ppm with Musca domestics was 100%. The same molecule registered a mortality at 3.5 µg/mL with Cullex pipiens pallens of 100%. Regarding `C=CCC(C#N)(C#N)C(C)(C)c1cccc(Cl)c1` [Compound 48, 2-allyl-2-(1-(3-chlorophenyl)-1-methylethyl)malononitrile], the mortality at 3.5 µg/mL with Cullex pipiens pallens is 100%. In the case of `C=CCC(C#N)(C#N)Cc1c(Cl)cccc1Cl` [Compound 54, 2-allyl-2-(2,6-dichlorobenzyl)malononitrile], the mortality at 3.5 µg/mL with Cullex pipiens pallens stood at 100%. `C=CCC(C#N)(C#N)Cc1ccc(S(C)(=O)=O)cc1` [Compound 61, 2-allyl-2-(4-(methylsulfonyl)benzyl)malononitrile] returned a mortality at 3.5 µg/mL in the assay on Cullex pipiens pallens of 100%. Same read-out and setting: in the case of `C=CCC(C#N)(C#N)Cc1ccc(C(F)(F)F)cc1[N+](=O)[O-]` [Compound 63, 2-allyl-2-(2-nitro-4-(trifluoromethyl)benzyl)malononitrile] it was 100%. On to `C=CCCC(C#N)(C#N)Cc1c(Cl)cc(C(F)(F)F)cc1Cl` [Compound 65, 2-(3-butenyl)-2-(2,6-dichloro-4-(trifluoromethyl)benzyl)malononitrile], for which, in the assay with Musca domestics, the mortality at 500 ppm turned out to be 100%. Moreover, the mortality at 3.5 µg/mL with Cullex pipiens pallens is 100%. Molecule `C=CCC(C#N)(C#N)Cc1ccc(SC)cc1` [Compound 70, 2-allyl-2-(4-(methylthio)benzyl)malononitrile] yielded a mortality at 3.5 µg/mL in the assay with Cullex pipiens pallens of 100%. On to `C=CCCC(C#N)(C#N)Cc1ccc(OC(C)=O)cc1` [Compound 78, 2-(3-butenyl)-2-(4-(acetyloxy)benzyl)malononitrile], for which, in the assay on Cullex pipiens pallens, the mortality at 3.5 µg/mL was 100%. Take `C=CCCC(C#N)(C#N)Cc1ccc(OC(F)(F)C(F)F)cc1` [Compound 80, 2-(3-butenyl)-2-(4-(1,1,2,2-tetrafluoroethoxy)benzyl)malononitrile]: the mortality at 3.5 µg/mL in the assay on Cullex pipiens pallens stood at 100%. In the assay on Cullex pipiens pallens, `C=CCCC(C#N)(C#N)Cc1ccc(OCC(F)(F)F)cc1` [Compound 81, 2-(3-butenyl)-2-(4-(2,2,2-trifluoroethoxy)benzyl)malononitrile] displayed a mortality at 3.5 µg/mL of 100%. For the molecule `C=CCC(C#N)(C#N)C(OC)c1ccc(C#N)cc1` (stereo not drawn) [Compound 83, 2-allyl-2-(4-cyano-α-methoxybenzyl)malononitrile], the mortality at 3.5 µg/mL in the assay on Cullex pipiens pallens amounted to 100%.

In turn, `C=CCCC(C#N)(C#N)Cc1cccc(OC(F)(F)F)c1` [Compound 90, 2-(3-butenyl)-2-(3-(trifluoromethoxy)benzyl)malononitrile] displayed a mortality at 500 ppm in the assay with Musca domestics of 100%.

In the assay on Cullex pipiens pallens, `C=CCC(C#N)(C#N)C(C#N)c1ccc(OC)cc1` (stereo not drawn) [Compound 91, 2-allyl-2-(4-methoxy-α-cyanobenzyl)malononitrile] returned a mortality at 3.5 µg/mL of 100%.

Turning to `C=CCC(C#N)(C#N)Cc1ccc(C(C)=O)cc1` [Compound 97, 2-(4-acetylbenzyl)-2-allylmalononitrile], the mortality at 3.5 µg/mL in the assay with Cullex pipiens pallens came to 100%. For the molecule `C=CCCC(C#N)(C#N)Cc1ccc(OCC)cc1` [Compound 98, 2-(3-butenyl)-2-(4-ethoxybenzyl)malononitrile], in the assay with Cullex pipiens pallens, the mortality at 3.5 µg/mL was 100%. In the case of `C=CCCC(C#N)(C#N)Cc1ccc(OCCC)cc1` [Compound 99, 2-(3-butenyl)-2-(4-propoxybenzyl)malononitrile], the mortality at 3.5 µg/mL in the assay on Cullex pipiens pallens is 100%.

With `C=CCCC(C#N)(C#N)Cc1ccc(OC(C)C)cc1` [Compound 100, 2-(3-butenyl)-2-(4-isopropoxybenzyl)malononitrile], the mortality at 3.5 µg/mL with Cullex pipiens pallens amounted to 100%.

`C=CCC(C#N)(C#N)C(c1ccc(OC(F)(F)F)cc1)C(C)(C)C` (stereo not drawn) [Compound 103, 2-allyl-2-(1-(4-(trifluoromethoxy)phenyl)-2,2-dimethylpropyl)malononitrile] registered a mortality at 3.5 µg/mL in the assay on Cullex pipiens pallens of 100%. In the case of `CCCCCC(C#N)(C#N)Cc1ccc(C(F)(F)F)cc1` [Compound 104, 2-pentyl-2-(4-(trifluoromethyl)benzyl)malononitrile], in the assay on Cullex pipiens pallens, the mortality at 3.5 µg/mL turned out to be 100%. The same measure, in the same setting: in the case of `CC(C)=CCC(C#N)(C#N)Cc1ccc(C(F)(F)F)cc1` [Compound 106, 2-(3-methyl-2-butenyl)-2-(4-(trifluoromethyl)benzyl)malononitrile] it was 100%; in that of `CCCC(C)C(C#N)(C#N)Cc1ccc(C(F)(F)F)cc1` (stereo not drawn) [Compound 112, 2-(1-methylbutyl)-2-(4-(trifluoromethyl)benzyl)malononitrile], 100%; in that of `CCCCC(C)C(C#N)(C#N)Cc1ccc(C(F)(F)F)cc1` (stereo not drawn) [Compound 113, 2-(1-methylpentyl)-2-(4-(trifluoromethyl)benzyl)malononitrile], 100%. On to `C=CCC(C#N)(C#N)Cc1ccc(F)c(Oc2ccccc2)c1` [Compound 116, 2-allyl-2-(4-fluoro-3-phenoxybenzyl)malononitrile], for which, in the assay on Cullex pipiens pallens, the mortality at 3.5 µg/mL stood at 100%. The same measure, in the same setting: in the case of `C=CCC(C#N)(C#N)Cc1cccc(Oc2ccccc2)c1` [Compound 118, 2-allyl-2-(3-phenoxybenzyl)malononitrile] it was 100%.
